Experimental data reported in patent US20210392935A1, “PREPARATION COMPRISING A PROBIOTIC STRAIN OF THE GENUS BACILLUS MEGATERIUM AND A POLYUNSATURATED FATTY ACID COMPONENT” (Evonik Operations GmbH, priority 2018, published 2021).

How the values were obtained:
Format in all cases: cell-based
[1] = tested on: Bacillus megaterium DSM 32963 cells; assay: Lipidometabolomics (UPLC-MS/MS) of PUFA oxygenation products in supernatants of B. megaterium DSM 32963 with AvailOm; settings: for abundance with dispersion formulation and/or bile acids compared to AvailOm alone (in words): B. megaterium DSM 32963 supernatants; for Extracellular concentration of PUFA oxygenation product: − bile acids, net of cell-free control
Description: To investigate the amount of extracellularly appearing 18-HEPE, the B. megaterium DSM 32963 cells were cultivated as described in example 1. The cells were resuspended in 10 ml LBG or LBG containing 9.76 g/I FeSSIF-V2 (biorelevant.com), which is a mixture of taurocholate, phospholipids and other components designed to simulate bile surfactants, and 2 ml of supplements (table 2) were added, respectively. Additionally, the supplements were also added respectively to the different media in shaking flasks without cells and treated under the same conditions (controls). The 18-HEPE concentrations of the culture supernatants and controls were determined after incubation at 16 h, 30° C. and 200 rpm (table 4). […] Of note, the omega-3 4 18-HEPE conversion rate detected by this method is up to 0.075, which exceeds the basal content of 18-HEPE of 0.0005% in an esterified fish oil, disclosed by WO 2017/041094. More importantly, we discovered that the omega-3 lysine salt is converted by Bacillus megaterium strains to a multitude of (final) SPM products at even higher concentrations than 18-HEPE (see example 6), which is of physiological relevance.
(§1) Bacterial supernatant samples were subjected to lipid extraction using RP-phase solid phase extraction and subsequently analyzed by ultra performance liquid chromatography ESI tandem mass spectrometry (UPLC-MS/MS) according to a published procedure. Under these conditions approximately 40 different LM, including 5-hydroxy-eicosapentaenoic acid 5-HEPE, 8-HEPE, 11-HEPE, 12-HEPE, 15-HEPE, 18-HEPE, 5-hydroxy-eicosatetraenoic acid (5-HETE), 8-HETE, 11-HETE, 12-HETE, 15-HETE, 4-hydroxy-DHA (4-HDHA), 7-HDHA, 13-HDHA, 14-HDHA, 17-HDHA, lipoxin A4 (LXA4), LXB4, resolvin E1 (RvE1), RvE3, resolvin D1-5 (RvD1-5), AT-RvD1, RvD2, protectin D1 (PD1), AT-PD1, maresin 1(MaR1), MaR2, plus 4 fatty acid substrates can be detected with a lower limit of detection of 1 pg.
To investigate if Bacillus megaterium is capable of producing other PUFA oxygenation products in addition to 18-HEPE, a lipidometabolomics screening of supernatants from Bacillus megaterium strain 32963 cultured as in example 4 with AvailOm® was performed, either dissolved or in a dispersion formulation, with or without bile acids. Cell-free preparations of AvailOm® formulations were treated and analyzed in parallel and served as controls for non-enzymatic, spontaneous formation of oxygenation products. Values given in table 6 display net concentrations of products formed, i.e. after subtraction of control values. […] Concentrations of several SPM exceed by far the concentrations of SPM found in human plasma samples, which are typically in a range of ˜20-100 pg/ml. For comparison, human breast milk contains ˜6.000 pg/ml RvE1 and ˜10.000 pg/ml RvD1 [42].

[2] = tested on: Bacillus megaterium DSM 33299; assay: Lipidometabolomics of supernatants of B. megaterium DSM 33299 with AvailOm dispersion; settings: Bacillus megaterium DSM 33299, AvailOm dispersion; net concentrations
From the text: as §1
(§2) 47 additional Bacillus megaterium strains sourced from various habitats were screened for their SPM production capacity to determine if this is a general phenomenon of the species Bacillus megaterium and to detect strain-specific differences in types and quantities of SPM being produced. Cells were cultured as detailed in example 4, with dispersion formulation of AvailOm® serving as omega-3 fatty acid source. Cell-free preparations of AvailOm® were treated and analyzed in parallel and served as controls for non-enzymatic, spontaneous formation of oxygenation products. […]

[3] = tested on: Bacillus megaterium DSM 33296; assay: Lipidometabolomics of supernatants of B. megaterium DSM 33296 with AvailOm dispersion; settings: Bacillus megaterium DSM 33296, AvailOm dispersion; net concentrations
From the text: as §1, §2

[4] = tested on: Bacillus megaterium strains; assay: Screen of 47 additional Bacillus megaterium strains for SPM production capacity; settings: 47 additional strains, AvailOm dispersion
From the text: as §1, §2

Molecule | abundance with dispersion formulation and/or bile acids compared to AvailOm alone (in words) [1] | other results
5-hydroxy-eicosatetraenoic acid [5-HETE] | lower | –
9-hydroxyoctadecadienoic acid [9-HODE] | lower | –
11-hydroxy-eicosapentaenoic acid [11-HEPE] | lower | –
12-hydroxy-eicosapentaenoic acid [12-HEPE] | lower | –
CCC=CCC=CCC=CCC=CC=CC(O)CCCC(=O)O (stereo not shown) [5-HEPE, 5-hydroxy-eicosapentaenoic acid] | lower | –
CCCCC/C=C\C/C=C\C=C\C(O)C/C=C\CCCC(=O)O (stereo not shown) [8-HETE, 8-hydroxy-eicosatetraenoic acid] | lower | –
CC/C=C\CC(O)/C=C/C=C\C/C=C\C/C=C\CCCC(=O)O (stereo not shown) [15-HEPE, 15-hydroxy-eicosapentaenoic acid] | lower | –
CCC(O)/C=C/C=C\C/C=C\C/C=C\C/C=C\CCCC(=O)O (stereo not shown) [18-HEPE, 18-hydroxy-eicosapentaenoic acid] | lower | –
CC/C=C\C[C@H](O)/C=C/C=C\C=C\C=C\[C@@H](O)[C@@H](O)C/C=C\CCC(=O)O [RvD1, resolvin D1] | – | Extracellular concentration of PUFA oxygenation product [2]: 4389 pg/mL; Extracellular concentration of PUFA oxygenation product ([1]; AvailOm dispersion): 1863 pg/mL; Extracellular concentration of PUFA oxygenation product ([1]; AvailOm): 598 pg/mL; Extracellular concentration of PUFA oxygenation product [3]: 3626 pg/mL
CC[C@H](O)C(O)/C=C/C=C/C=C\C/C=C\C/C=C\CCCC(=O)O (stereo partly shown) [RvE3, resolvin E3] | – | concentration in most of the strains [4]: up to 1.3 μg/ml
